Results on 14 molecules are retold here after patent US20240156965A1, “DICHALCOGENIDE PRODRUGS” (Ludwig-Maximilians-Universitat Munchen, priority 2021, published 2024).

For data set [1], the target named is T1, TrxR (Rattus norvegicus, UniProt O89049).
T1 sequence (O89049 1-499): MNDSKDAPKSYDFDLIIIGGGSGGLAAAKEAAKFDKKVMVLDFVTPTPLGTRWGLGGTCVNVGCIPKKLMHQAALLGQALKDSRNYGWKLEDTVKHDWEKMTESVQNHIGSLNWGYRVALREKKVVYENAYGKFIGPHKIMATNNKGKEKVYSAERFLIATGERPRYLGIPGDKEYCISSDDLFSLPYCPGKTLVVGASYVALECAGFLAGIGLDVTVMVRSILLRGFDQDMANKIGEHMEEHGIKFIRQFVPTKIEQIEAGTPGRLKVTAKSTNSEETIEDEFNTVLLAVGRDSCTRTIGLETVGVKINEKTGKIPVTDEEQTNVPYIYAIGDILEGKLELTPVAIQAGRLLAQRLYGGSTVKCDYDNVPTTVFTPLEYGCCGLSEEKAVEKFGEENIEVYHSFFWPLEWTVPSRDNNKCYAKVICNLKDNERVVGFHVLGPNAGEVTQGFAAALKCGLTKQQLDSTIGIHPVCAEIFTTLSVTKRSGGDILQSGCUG
As to conditions: cited from earlier work.

A further data set addresses T2, TrxR1 (Homo sapiens, UniProt Q16881).
T2 construct: endogenous in cells
T2 sequence (Q16881 151-649 limits assumed): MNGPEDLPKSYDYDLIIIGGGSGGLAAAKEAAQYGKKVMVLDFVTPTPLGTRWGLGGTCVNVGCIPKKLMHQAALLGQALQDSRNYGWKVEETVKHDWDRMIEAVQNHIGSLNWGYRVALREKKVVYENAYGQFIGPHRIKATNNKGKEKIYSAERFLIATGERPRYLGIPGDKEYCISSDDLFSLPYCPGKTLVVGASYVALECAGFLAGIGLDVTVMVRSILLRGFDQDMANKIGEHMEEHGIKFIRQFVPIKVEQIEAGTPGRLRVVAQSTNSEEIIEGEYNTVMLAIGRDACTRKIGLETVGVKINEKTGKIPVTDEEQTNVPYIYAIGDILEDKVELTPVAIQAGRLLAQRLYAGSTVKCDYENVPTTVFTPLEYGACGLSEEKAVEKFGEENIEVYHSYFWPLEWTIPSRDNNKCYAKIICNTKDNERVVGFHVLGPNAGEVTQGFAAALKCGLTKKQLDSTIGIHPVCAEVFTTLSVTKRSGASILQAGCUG
Put plainly: Cellular quantitative HTS for TrxR1 inhibitors using P6 (LOPAC1280). The settings on record: for activity / hit status in cellular P6 screen: hits classed up to 20 μM; for pIC50 comparison between BAY 11-7085 and BAY 11-7082: despite ca. 1.1 Log P difference. Type of data set: cell-based. The source says: The stability and constant environment of P6's signal (crystallising fluorophore, protected from interferences), its low background (ESIPT quenched probe) and low crosstalk (high Stokes shift), and its ability to directly generate a readout, were promising features. We therefore set out to develop the first cellular quantitative HTS (qHTS) assay for TrxR1 inhibitors, using P6, and performing pilot screening with the 1280-compound LOPAC1280 library. LOPAC is intended to cover drugs and drug-like scaffolds with much comparative data on target selectivity, potency, cellular and in vivo bioactivity, without focus on any particular mechanism of action. The LOPAC library was used in the only previously reported qHTS enzymatic TrxR assay (in 2011), and there is 82% overlap in composition between the 2011 and 2021 version (Prast-Nielsen, S. et al., Free Radical Biology and Medicine 50, 1114-1123 (2011)).
Cellular screening using P6, optimized for HTS with 1536-well plates (assay volume 6 μL, 500 cells/well) over 4 h run-time, reproduced the strong performance seen in 96-well format. Untreated vs no-cell controls gave a 7-fold raw signal to background ratio [S:B] without background compensation, with a high Z′ value of 0.64, suitable for HTS (FIG. 5a). P6 signal was linear over the assay time, and linearly reflected turnover rate (varied P6 concentration or cell count; FIG. 5b). Pre-incubating cells for 1 h with reference inhibitors prior to P6 gave concentration-dependent inhibition consistent with reported values (FIG. 5c).
A LOPAC1280 screen using this assay protocol performed well (Z′=0.63, S:B 7:1). Compounds with apparent toxicity within the assay time were excluded by a separate viability counter-assay. Moderate cut-off criteria (IC50<20 μM and curve form) gave a <1.5% hit rate (18 of 1278 compounds, plus TRi-1 and TRi-2; FIG. 5d). […] Matching expectations, with the exception of auranofin, none of these species approached the potency of TRi-1 (Stafford, W. C. et al., Sci. Transl. Med. 10, eaaf7444 (2018)).

In data set [2] the test system is HeLa cervical cancer cell line. As to the kind of experiment: Cellular reduction assay in HeLa cells (fluorescence timecourse). As to conditions: time- and dose-dependence. It counts as cell-based, human. On the procedure:
Assay Conditions: Cells were cultured under standard conditions (Gao, L. et al. Cell Chemical Biology 2021, 28, 1-14. https://doi.org/10.1016/j.chembiol.2020.11.007), left to adhere for 24 h, then compounds were added to 100 μM with 1% vol DMSO. Fluorescence timecourse measurements were acquired as in the chemoreductant assay, with all conditions in triplicates.
Data Representation: F.I.(t) is the fluorescence intensity signal increase as compared to time zero signal (fluorescence intensity immediately following compound addition, before probe activation could occur), in arbitrary units although with the same detection settings for all probes releasing the same cargo. This corresponds to reduction-triggered cargo release.

Data set [3] in a line: Challenge with monothiol reductant GSH, cell-free fluorogenic cargo release. It counts as physicochemical. As to conditions: 10 μM probe; for sensitivity to GSH in GSH titration, signal F/F^TCEP: 3 h timepoint, GSH up to 10 mM; for resistance to GSH-triggered release of fluorescent cargo PQ-OH (timecourse): supraphysiological GSH 10 mM, TE buffer pH 7.4, 37 °C; for cargo release when challenged with GSH / GSH system reductants: relevant cellular levels. The source says: (§1) This cell-free assay examined the stability of dichalcogenide-based reduction-triggered compounds of the invention when exposed to cellular monothiol reductant GSH, and its cellular partner reductants glutathione reductase (GR) and glutaredoxins (Grx1 and Grx2).
(§2) Assay Conditions: A black 96-well plate with black bottom was charged with solutions of fluorophore-releasing reduction-triggered probes that are compounds of the invention (P1, P2, P3, P6 and P7) or that are not compounds of the invention and reveal the performance of prior art systems (disulfide X26), reaching 100 μL final volume, 1% final DMSO, 10 μM probe, aq. TE buffer (pH 7.4), with the indicated concentrations of reductant (in FIG. 1a) or concentration ratios of reductant to probe (in FIG. 1b-d). TCEP (100 μM) was used as a quantitative reference reductant; and in the GR/GSH/Grx assays (FIG. 1c-d), GR was used at 20 nM, GSH at 100 μM, to maintain Grx in a reduced state suitable for challenging the probes without supplying a high concentration of either GSH or GR. Reaction mixtures were incubated at 37° C. for up to 6 h while measuring fluorescence intensity F over time, using a BMG Labtech FLUOstar Omega platereader (λexc=355 nm, λem=530 nm).
(§3) Data Representation: F^TCEP is the maximum possible fluorescence increase, corresponding to complete reduction-triggered cargo release by the TCEP incubation. F/F^TCEP thus gives the fluorescence intensity, as a fraction of the maximum possible fluorescence signal, at the indicated times.

For data set [4], the target named is T3, human recombinant thioredoxin reductase 1 (TrxR1) (Homo sapiens, UniProt Q16881).
T3 sequence (Q16881 1-499 isoform Q16881-5): T2 sequence (Q16881 151-649 limits assumed)
Put plainly: Enzymatic activation assay with TrxR1, cell-free. Type of data set: biochemical. The settings on record: 10 μM probe, 20 nM TrxR1, 100 μM NADPH, 37 °C. As to the method:
This cell-free assay (see FIG. 2) examined the processing of dichalcogenide-based fluorophore-releasing reduction-triggered probes that are compounds of the invention, by components of the cellular thioredoxin system.
Assay conditions and data representation: A black 96-well plate with black bottom was charged with solutions of probes (P1, P2, P3, P6, P7) to reach final reaction conditions: 100 μL of aq. TE buffer (pH 7.4), 10 μM probe concentration, 1 vol % DMSO, and 20 nM of human recombinant thioredoxin reductase 1 (TrxR1; in FIG. 1a), or 20 nM of either TrxR1 or thioredoxin reductase Sec498Cys mutant (TrxR1 U498C or “mut”; in FIG. 1b), or the indicated probe-to-reductant concentration ratios of TrxR1 (in FIG. 1c) or human recombinant thioredoxin 1 (Trx1; in FIG. 1d); with the final step being the addition of NADPH (100 μM final). The reaction mixtures were incubated at 37° C. for 3 to 6 h as shown with timecourse measurements of fluorescence as for FIG. 1. Data representation as for FIG. 1.

Data set [5] concerns glutaredoxins (Grx1 and Grx2) with GR and GSH. Put plainly: Challenge with GR/GSH/Grx system reductants, cell-free. Type of data set: biochemical. As to conditions: 10 μM probe, GR 20 nM, GSH 100 μM, Grx1 or Grx2 up to physiological concentrations.
Text: as §1, §2, §3

For data set [6], the system named is TrxR. As to conditions: cell-free; cited from earlier work.

Structures are written as SMILES. “Also recorded” adds a separate entry of the source.

As to `C=CCN1CCc2c(cc(O)c(O)c2Cl)C(c2ccccc2)C1` (stereo not drawn) [chloro-APB], on TrxR [1], the “activity in enzymatic (cell-free) TrxR screen” value was “inactivity in the enzymatic assay”. The “activity / hit status in cellular P6 screen” value (from here on “activity / hit status”) on TrxR1 is given as “active in the cellular screen”.
In the case of `COC[C@H]1OC(=O)c2coc3c2[C@@]1(C)C1=C(C3=O)[C@@H]2CCC(=O)[C@@]2(C)C[C@H]1OC(C)=O` [wortmannin], the “activity in enzymatic (cell-free) TrxR screen” value at TrxR [1] is “activity in the enzymatic screen”.
For `Cc1ccc(S(=O)(=O)/C=C/C#N)cc1` [BAY 11-7082], the “pIC50 comparison between BAY 11-7085 and BAY 11-7082” value against TrxR1 is reported as “no change”.
For the molecule `CN(N=O)c1cc(O)ccc1O` [Dephostatin], the “ratio of cell-free to cellular potency (potency loss in cells)” value on TrxR1 (shared hits of cellular and cell-free qHTS) is listed as over 10 fold.
Take `CC(C)(C)c1ccc(S(=O)(=O)/C=C/C#N)cc1` [BAY 11-7085]: the “pIC50 comparison between BAY 11-7085 and BAY 11-7082” value against TrxR1 was “no change”.
In the case of `OC[C@H]1O[C@H]([S-])[C@H](O)[C@@H](O)[C@@H]1O.[Au+]` [aurothioglucose], the “pIC50/potency lower than auranofin” value at TrxR1 (relative to ester prodrug auranofin) is on record as 10 fold.
Take `CN1CCN(C(=O)CCN(C(=O)Oc2ccc(Cl)cc2-c2nc3ccc(Cl)cc3c(=O)[nH]2)C2CCCCC2)CC1` [X28, reference compound]: in data set [2], the “fluorescence signal generation F.I.(t) in HeLa cells” value is “does not generate signal; also recorded: did not generate signal”.
Consider `CN(C(=O)Oc1ccc(Cl)cc1-c1nc2ccc(Cl)cc2c(=O)[nH]1)C1CC[Se][Se]C1` (stereo not drawn) [P3], for which, in data set [3], the “sensitivity to GSH in GSH titration, signal F/F^TCEP” value (from here on “sensitivity to GSH in GSH titration”) is “completely insensitive”; the “resistance to GSH-triggered release of fluorescent cargo PQ-OH (timecourse)” value (from here on “resistance to GSH-triggered release”) was “entirely”; the “cargo release when challenged with GSH / GSH system reductants” value is listed as “totally resisted releasing cargo”. For the same molecule, the “cargo release on exposure to TrxR1 (timecourse)” value in data set [4] is recorded as “stable to this challenge; also recorded: nonresponsive to TrxR”.
Take `Oc1ccc2ccccc2c1SSc1c(O)ccc2ccccc12` [IPA-3]: at TrxR [1], the “activity in enzymatic (cell-free) TrxR screen” value was “inactivity in the enzymatic assay”. For the same molecule, on TrxR1, the “activity / hit status” value is on record as “active in the cellular screen”.
On to `CN(C(=O)Oc1ccc(Cl)cc1-c1nc2ccc(Cl)cc2c(=O)[nH]1)C1CCS[Se]C1` (stereo not drawn) [P1], for which, in data set [3], the “sensitivity to GSH in GSH titration” value is given as “completely insensitive”; the “resistance to GSH-triggered release” value was “entirely”; the “cargo release when challenged with GSH / GSH system reductants” value was “totally resisted releasing cargo”.
Regarding `CN(C(=O)Oc1ccc(Cl)cc1-c1nc2ccc(Cl)cc2c(=O)[nH]1)C1CC[Se]SC1` (stereo not drawn) [P2], in data set [3], the “sensitivity to GSH in GSH titration” value is “very low sensitivity”; the “resistance to GSH-triggered release” value is “majorly”; the “cargo release when challenged with GSH / GSH system reductants” value is listed as “high resistance to GSH challenge”. Also, the “triggering by GR/GSH/Grx systems” value in data set [5] is reported as “total resistance to Grx challenge”.
On to `NC1CC[Se][Se]C1` (stereo not drawn) [E4], for which the “reduction by TrxR in vitro” value with TrxR [6] is reported as “resistant to TrxR”.
Turning to `OC1C[Se][Se]CC1O` (stereo not drawn) [E3], the “reduction by TrxR in vitro” value in the data set on TrxR [6] is listed as “processed by TrxR”.
For `NC1(C(=O)O)CCc2cc(C(=O)O)ccc21` (stereo not drawn) [AIDA], at TrxR1, the “activity / hit status” value is on record as “non-obvious hit”.
